Measurements from US8044069B2, “Compounds as calcium channel blockers” (Abbott Laboratories, priority 2008, dated 2011).

These molecules were tested against human Cav2.2 (Homo sapiens, UniProt Q00975) (assay: Assessment of calcium channel activity using FLIPR (Ca2+ influx in IMR32 cells)). Details: IMR32 cells endogenously expressing human Cav2.2; 60 minute pre-incubation; 2 μM nifedipine; depolarized with 80 mM KCl, 5 mM CaCl2.
Chain of human Cav2.2 (Q00975 whole entry): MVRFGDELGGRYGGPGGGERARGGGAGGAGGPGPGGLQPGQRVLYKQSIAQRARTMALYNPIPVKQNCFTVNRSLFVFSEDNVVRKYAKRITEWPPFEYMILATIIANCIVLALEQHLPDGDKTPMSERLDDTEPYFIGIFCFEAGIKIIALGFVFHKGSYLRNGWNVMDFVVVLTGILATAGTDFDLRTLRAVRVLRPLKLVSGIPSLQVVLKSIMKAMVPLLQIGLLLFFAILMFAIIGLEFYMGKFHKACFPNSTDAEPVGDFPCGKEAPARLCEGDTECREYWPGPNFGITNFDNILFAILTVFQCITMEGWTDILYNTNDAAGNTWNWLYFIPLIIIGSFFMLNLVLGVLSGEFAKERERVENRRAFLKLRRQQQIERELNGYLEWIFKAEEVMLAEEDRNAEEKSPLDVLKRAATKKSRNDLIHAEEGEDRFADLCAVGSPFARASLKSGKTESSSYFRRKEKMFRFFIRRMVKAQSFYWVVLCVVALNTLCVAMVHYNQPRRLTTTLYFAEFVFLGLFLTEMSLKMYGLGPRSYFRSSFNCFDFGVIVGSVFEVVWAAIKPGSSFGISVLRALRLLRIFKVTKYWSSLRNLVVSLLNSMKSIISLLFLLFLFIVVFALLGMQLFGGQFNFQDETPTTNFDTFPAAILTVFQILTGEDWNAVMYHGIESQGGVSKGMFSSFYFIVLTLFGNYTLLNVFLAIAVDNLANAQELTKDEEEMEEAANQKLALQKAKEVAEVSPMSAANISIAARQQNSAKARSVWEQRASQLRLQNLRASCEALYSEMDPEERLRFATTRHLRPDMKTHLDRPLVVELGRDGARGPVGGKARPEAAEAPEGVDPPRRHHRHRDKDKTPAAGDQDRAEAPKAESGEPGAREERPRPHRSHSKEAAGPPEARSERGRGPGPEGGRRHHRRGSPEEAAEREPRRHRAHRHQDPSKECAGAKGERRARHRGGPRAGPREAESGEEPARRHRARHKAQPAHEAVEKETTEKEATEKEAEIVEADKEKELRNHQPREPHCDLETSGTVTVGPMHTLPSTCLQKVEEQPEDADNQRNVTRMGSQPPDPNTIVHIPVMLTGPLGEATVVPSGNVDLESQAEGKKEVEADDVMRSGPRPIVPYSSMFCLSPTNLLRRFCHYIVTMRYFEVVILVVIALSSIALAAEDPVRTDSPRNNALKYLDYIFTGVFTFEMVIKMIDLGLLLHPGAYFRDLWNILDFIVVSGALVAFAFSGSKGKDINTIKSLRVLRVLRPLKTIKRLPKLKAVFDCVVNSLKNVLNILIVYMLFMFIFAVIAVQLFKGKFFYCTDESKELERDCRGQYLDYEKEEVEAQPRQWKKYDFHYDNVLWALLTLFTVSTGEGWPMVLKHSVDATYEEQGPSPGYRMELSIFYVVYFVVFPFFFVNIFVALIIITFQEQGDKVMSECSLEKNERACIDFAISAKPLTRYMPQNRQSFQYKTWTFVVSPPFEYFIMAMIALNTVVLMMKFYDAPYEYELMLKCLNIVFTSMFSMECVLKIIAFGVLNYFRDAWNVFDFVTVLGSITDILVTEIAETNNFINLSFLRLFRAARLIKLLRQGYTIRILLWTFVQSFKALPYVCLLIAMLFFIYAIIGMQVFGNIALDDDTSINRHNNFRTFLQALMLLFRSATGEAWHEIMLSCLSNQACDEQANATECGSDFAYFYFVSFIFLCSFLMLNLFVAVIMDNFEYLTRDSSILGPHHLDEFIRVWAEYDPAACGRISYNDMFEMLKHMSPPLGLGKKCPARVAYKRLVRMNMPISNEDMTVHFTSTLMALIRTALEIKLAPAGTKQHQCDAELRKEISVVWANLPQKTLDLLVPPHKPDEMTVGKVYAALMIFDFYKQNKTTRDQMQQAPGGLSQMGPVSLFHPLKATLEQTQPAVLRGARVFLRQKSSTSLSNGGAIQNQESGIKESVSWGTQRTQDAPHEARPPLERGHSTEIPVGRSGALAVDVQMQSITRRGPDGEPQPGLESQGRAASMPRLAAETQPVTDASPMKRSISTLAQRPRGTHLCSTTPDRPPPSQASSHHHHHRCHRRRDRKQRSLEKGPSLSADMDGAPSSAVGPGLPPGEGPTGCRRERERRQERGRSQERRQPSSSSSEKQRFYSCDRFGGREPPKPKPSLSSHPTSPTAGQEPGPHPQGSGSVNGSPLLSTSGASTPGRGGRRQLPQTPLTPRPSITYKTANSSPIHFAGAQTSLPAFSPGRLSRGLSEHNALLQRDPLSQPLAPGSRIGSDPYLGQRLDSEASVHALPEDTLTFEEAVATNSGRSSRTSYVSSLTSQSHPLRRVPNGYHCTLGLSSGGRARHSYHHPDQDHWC
Chain of human Cav2.2 (P54289 25-951 partner limits assumed): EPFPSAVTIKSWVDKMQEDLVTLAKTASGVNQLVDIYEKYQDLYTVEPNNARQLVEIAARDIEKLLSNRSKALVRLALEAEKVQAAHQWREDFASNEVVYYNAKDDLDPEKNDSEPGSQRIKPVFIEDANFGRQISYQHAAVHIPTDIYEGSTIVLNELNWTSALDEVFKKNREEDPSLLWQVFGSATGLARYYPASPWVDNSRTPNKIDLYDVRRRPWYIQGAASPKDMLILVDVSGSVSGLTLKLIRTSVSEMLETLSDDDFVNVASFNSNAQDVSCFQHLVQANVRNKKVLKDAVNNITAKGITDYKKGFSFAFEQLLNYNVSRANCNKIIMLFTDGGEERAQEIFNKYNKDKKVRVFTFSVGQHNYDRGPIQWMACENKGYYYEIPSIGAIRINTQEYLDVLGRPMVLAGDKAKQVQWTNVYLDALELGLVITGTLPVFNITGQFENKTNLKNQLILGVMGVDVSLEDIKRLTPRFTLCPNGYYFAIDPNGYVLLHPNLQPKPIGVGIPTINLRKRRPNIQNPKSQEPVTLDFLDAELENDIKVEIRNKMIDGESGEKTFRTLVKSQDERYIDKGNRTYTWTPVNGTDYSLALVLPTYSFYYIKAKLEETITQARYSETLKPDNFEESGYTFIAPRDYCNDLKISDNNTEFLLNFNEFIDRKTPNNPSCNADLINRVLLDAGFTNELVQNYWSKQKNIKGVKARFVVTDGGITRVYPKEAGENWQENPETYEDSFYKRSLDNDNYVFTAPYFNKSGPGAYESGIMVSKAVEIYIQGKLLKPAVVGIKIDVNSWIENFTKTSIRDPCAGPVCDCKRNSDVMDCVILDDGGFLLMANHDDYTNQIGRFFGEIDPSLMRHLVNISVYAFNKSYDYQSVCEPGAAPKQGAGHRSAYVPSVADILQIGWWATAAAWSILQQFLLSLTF
Chain of human Cav2.2 (P54289 952-1103 partner limits assumed): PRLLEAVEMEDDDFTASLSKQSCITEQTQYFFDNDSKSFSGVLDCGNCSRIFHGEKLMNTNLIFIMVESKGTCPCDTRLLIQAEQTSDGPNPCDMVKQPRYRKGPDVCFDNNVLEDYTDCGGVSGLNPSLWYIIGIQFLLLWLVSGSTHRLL
Chain of human Cav2.2 (P54284 whole entry partner): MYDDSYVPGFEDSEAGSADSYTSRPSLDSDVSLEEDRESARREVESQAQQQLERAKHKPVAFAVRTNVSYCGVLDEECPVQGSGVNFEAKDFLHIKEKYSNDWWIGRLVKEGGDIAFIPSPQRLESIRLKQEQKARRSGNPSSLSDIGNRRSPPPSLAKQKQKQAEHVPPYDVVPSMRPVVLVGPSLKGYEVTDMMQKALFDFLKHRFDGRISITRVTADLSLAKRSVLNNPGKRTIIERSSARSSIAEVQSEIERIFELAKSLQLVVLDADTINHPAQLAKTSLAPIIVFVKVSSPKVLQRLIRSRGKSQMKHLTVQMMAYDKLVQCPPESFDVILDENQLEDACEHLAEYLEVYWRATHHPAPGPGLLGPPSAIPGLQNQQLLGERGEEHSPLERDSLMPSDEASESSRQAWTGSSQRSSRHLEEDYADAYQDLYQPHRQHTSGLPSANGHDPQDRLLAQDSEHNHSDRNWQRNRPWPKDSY
Assay type: cell-based
Procedure: (i) In Vitro Methods—Assessment of Calcium Channel Activity Using FLIPR:
The IMR32 cells were maintained in MEM media containing 10% (v/v) FBS, 1% (v/v) antibiotic/antimitotic, 1% (v/v) sodium pyruvate and 1% (v/v) MEM NEAA. Following dissociation in 0.05% (v/v) trypsin/EDTA, cells were seeded into black 1×96-well plates (Corning Cellbind) at a density of 1-1.2×10^5 cells/well and incubated in the maintenance media above for 48 hours at 37° C. […] After dye loading and a subsequent 60 minute pre-incubation with compounds (full log dilutions from 10 μM to 0.1 nM) in the presence of 1.3 mM CaCl2 and 2 μM nifedipine to block endogenous L-type channels, the external Ca^2+ concentration was increased to 5 mM CaCl2 and the cells concomitantly depolarized with 80 mM KCl to assay channel activity. To determine the IC50 values, the percent inhibition of the compound at each concentration was determined relative to the activity in the absence of inhibitor, and data was fitted using non-linear regression sigmoidal dose response curve analysis with GraphPad Prism®.
For `O=C(CN1CCC(c2ccccc2)(c2ccccc2)C1=O)N1CCC[C@@H]2CN(C(c3ccccc3)c3ccccc3)C[C@@H]21` [Example 51, 1-{2-[(4aR,7aR)-6-benzhydryloctahydro-1H-pyrrolo[3,4-b]pyridin-1-yl]-2-oxoethyl}-3,3-diphenylpyrrolidin-2-one], the IC50 was 2290 nM. `O=C(CN1CCC(c2ccccc2)(c2ccccc2)C1=O)N1CCC(NCC(c2ccccc2)c2ccccc2)CC1` [Example 52, 1-(2-{4-[(2,2-diphenylethyl)amino]piperidin-1-yl}-2-oxoethyl)-3,3-diphenylpyrrolidin-2-one] gave an IC50 of 1540 nM. `O=C(CN1CCC(c2ccccc2)(c2ccccc2)C1=O)N1CCN(c2ccc(Cl)cn2)CC1` [Example 53, 1-{2-[4-(5-chloropyridin-2-yl)piperazin-1-yl]-2-oxoethyl}-3,3-diphenylpyrrolidin-2-one] was tested, and the IC50 was 4020 nM. `O=C(CN1CCC(c2ccccc2)(c2ccccc2)C1=O)N1CCN(c2ccc(F)cc2)CC1` [Example 54, 1-{2-[4-(4-fluorophenyl)piperazin-1-yl]-2-oxoethyl}-3,3-diphenylpyrrolidin-2-one] gave an IC50 of 2550 nM. For `O=C(CN1CCC(c2ccccc2)(c2ccccc2)C1=O)N1CCc2ccc(C(F)(F)F)cc2C1` [Example 55, 1-{2-oxo-2-[7-(trifluoromethyl)-3,4-dihydroisoquinolin-2(1H)-yl]ethyl}-3,3-diphenylpyrrolidin-2-one], the IC50 was 2130 nM. In the case of `CC(CNC(=O)CN1CCC(c2ccc(F)cc2)(c2ccc(F)cc2)C1=O)(c1ccccc1)c1ccccc1` [Example 59, 2-[3,3-bis(4-fluorophenyl)-2-oxopyrrolidin-1-yl]-N-(2,2-diphenylpropyl)acetamide], the IC50 is reported as 2380 nM. `O=C(CN1CCC(c2ccc(F)cc2)(c2ccc(F)cc2)C1=O)N1CCN(Cc2cccc(C(F)(F)F)c2)CC1` [Example 60, 3,3-bis(4-fluorophenyl)-1-(2-oxo-2-{4-[3-(trifluoromethyl)benzyl]piperazin-1-yl}ethyl)pyrrolidin-2-one] gave an IC50 of 1010 nM. `O=C(CN1CCC(c2ccc(F)cc2)(c2ccc(F)cc2)C1=O)N1CCC(c2ccccc2)(c2ccccc2)C1` [Example 61, 1-[2-(3,3-diphenylpyrrolidin-1-yl)-2-oxoethyl]-3,3-bis(4-fluorophenyl)pyrrolidin-2-one] gave an IC50 of 1310 nM. `O=C1N(Cc2nc(-c3ccc(C(F)(F)F)cc3)no2)CCC1(c1ccccc1)c1ccccc1` [Example 62, 3,3-diphenyl-1-({3-[4-(trifluoromethyl)phenyl]-1,2,4-oxadiazol-5-yl}methyl)pyrrolidin-2-one] was tested, and the IC50 was 8710 nM. `COc1cc(CN2CCN(CCN3CCC(c4ccc(F)cc4)(c4ccc(F)cc4)C3=O)CC2)cc(OC)c1` [Example 63, 1-{2-[4-(3,5-dimethoxybenzyl)piperazin-1-yl]ethyl}-3,3-bis(4-fluorophenyl)pyrrolidin-2-one] gave an IC50 of 1650 nM. In the case of `O=C1CN(C(c2ccccc2)c2ccccc2)CCN1CCN1CCC(c2ccccc2)(c2ccccc2)C1=O` [Example 64, 4-benzhydryl-1-[2-(2-oxo-3,3-diphenylpyrrolidin-1-yl)ethyl]piperazin-2-one], the IC50 is reported as 2090 nM. `CC1(C)C(=O)N(CCN2CCC(c3ccccc3)(c3ccccc3)C2=O)CCN1Cc1cccs1` [Example 65, 3,3-dimethyl-1-[2-(2-oxo-3,3-diphenylpyrrolidin-1-yl)ethyl]-4-(thien-2-ylmethyl)piperazin-2-one] showed an IC50 of 1040 nM. `O=C1CN(CCN2CCC(c3ccccc3)(c3ccccc3)C2=O)CCN1C(c1ccccc1)c1ccccc1` [Example 66, 1-benzhydryl-4-[2-(2-oxo-3,3-diphenylpyrrolidin-1-yl)ethyl]piperazin-2-one] showed an IC50 of 1830 nM. `O=C1N(CCN2CCc3ccc(C(F)(F)F)cc3C2)CCC1(c1ccccc1)c1ccccc1` [Example 67, 3,3-diphenyl-1-{2-[7-(trifluoromethyl)-3,4-dihydroisoquinolin-2(1H)-yl]ethyl}pyrrolidin-2-one] gave an IC50 of 3440 nM. Work on `O=C(CN1CCCC(c2ccccc2)(c2ccccc2)C1=O)N1CCOC(c2ccccc2)(c2ccccc2)C1` [Example 69, 1-[2-(2,2-diphenylmorpholin-4-yl)-2-oxoethyl]-3,3-diphenylpiperidin-2-one] yielded an IC50 of 6050 nM. `O=C(CN1CCCC(c2ccccc2)(c2ccccc2)C1=O)N1CCOC(c2ccccc2)C1` (centres unmarked) [Example 70, 1-[2-oxo-2-(2-phenylmorpholin-4-yl)ethyl]-3,3-diphenylpiperidin-2-one] gave an IC50 of 7220 nM. In the case of `O=C(CN1CCCC(c2ccccc2)(c2ccccc2)C1=O)N1CCCC(c2ccccc2)(c2ccccc2)C1` [Example 71, 1-[2-(3,3-diphenylpiperidin-1-yl)-2-oxoethyl]-3,3-diphenylpiperidin-2-one], the IC50 is reported as 3410 nM. `O=C(CN1CCCC(c2ccccc2)(c2ccccc2)C1=O)N1CCCC1c1ccc(F)cc1` (centres unmarked) [Example 73, 1-{2-[2-(4-fluorophenyl)pyrrolidin-1-yl]-2-oxoethyl}-3,3-diphenylpiperidin-2-one] showed an IC50 of 3460 nM. `O=C(CN1CCCC(c2ccccc2)(c2ccccc2)C1=O)N1CCCCC1c1ccc(F)cc1` (centres unmarked) [Example 74, 1-{2-[2-(4-fluorophenyl)piperidin-1-yl]-2-oxoethyl}-3,3-diphenylpiperidin-2-one] was tested, and the IC50 was 2680 nM. Work on `O=C(CN1CCCC(c2ccccc2)(c2ccccc2)C1=O)NC1CCOc2ccc(F)cc21` (centres unmarked) [Example 75, N-(6-fluoro-3,4-dihydro-2H-chromen-4-yl)-2-(2-oxo-3,3-diphenylpiperidin-1-yl)acetamide] yielded an IC50 of 4610 nM. For `O=C(CN1CCCC(c2ccccc2)(c2ccccc2)C1=O)N1CCC(C(c2ccccc2)c2ccccc2)CC1` [Example 76, 1-[2-(4-benzhydrylpiperidin-1-yl)-2-oxoethyl]-3,3-diphenylpiperidin-2-one], the IC50 was 2610 nM. With `CC(CNC(=O)CN1CCCC(c2ccccc2)(c2ccccc2)C1=O)(c1ccccc1)c1ccccc1` [Example 77, N-(2,2-diphenylpropyl)-2-(2-oxo-3,3-diphenylpiperidin-1-yl)acetamide] the IC50 was 1710 nM. For `O=C(CN1CCCC(c2ccccc2)(c2ccccc2)C1=O)N1CCC(C(O)(c2ccccc2)c2ccccc2)CC1` [Example 78, 1-(2-{4-[hydroxy(diphenyl)methyl]piperidin-1-yl}-2-oxoethyl)-3,3-diphenylpiperidin-2-one], the IC50 was 1740 nM. In the case of `O=C(CN1CCCC(c2ccccc2)(c2ccccc2)C1=O)N1CCN(Cc2ccc(C(F)(F)F)cc2)CC1` [Example 80, 1-(2-oxo-2-{4-[4-(trifluoromethyl)benzyl]piperazin-1-yl}ethyl)-3,3-diphenylpiperidin-2-one], the IC50 is reported as 1380 nM. Molecule `O=C(CN1CCCC(c2ccccc2)(c2ccccc2)C1=O)N1CCN(Cc2cccc(Cl)c2)CC1` [Example 81, 1-{2-[4-(3-chlorobenzyl)piperazin-1-yl]-2-oxoethyl}-3,3-diphenylpiperidin-2-one] has an IC50 of 1320 nM. `O=C(CN1CCCC(c2ccccc2)(c2ccccc2)C1=O)N1CCN(C(c2ccc(F)cc2)c2ccc(F)cc2)CC1` [Example 82, 1-(2-{4-[bis(4-fluorophenyl)methyl]piperazin-1-yl}-2-oxoethyl)-3,3-diphenylpiperidin-2-one] showed an IC50 of 2360 nM. For `O=C(CN1CCCC(c2ccccc2)(c2ccccc2)C1=O)N1CCN(C(c2ccccc2)c2ccccc2)C(=O)C1` [Example 83, 1-benzhydryl-4-[(2-oxo-3,3-diphenylpiperidin-1-yl)acetyl]piperazin-2-one], the IC50 was 1230 nM. In the case of `O=C(CN1CCCC(c2ccccc2)(c2ccccc2)C1=O)N1CCN(S(=O)(=O)c2cccc(C(F)(F)F)c2)CC1` [Example 84, 1-[2-oxo-2-(4-{[3-(trifluoromethyl)phenyl]sulfonyl}piperazin-1-yl)ethyl]-3,3-diphenylpiperidin-2-one], the IC50 is reported as 410 nM. Work on `O=C(CN1CCCC(c2ccccc2)(c2ccccc2)C1=O)NC1CCN(C(c2ccccc2)c2ccccc2)CC1` [Example 85, N-(1-benzhydrylpiperidin-4-yl)-2-(2-oxo-3,3-diphenylpiperidin-1-yl)acetamide] yielded an IC50 of 410 nM. In the case of `O=C(CN1CCCC(c2ccccc2)(c2ccccc2)C1=O)N1CCC(NC(c2ccccc2)c2ccccc2)CC1` [Example 87, 1-{2-[4-(benzhydrylamino)piperidin-1-yl]-2-oxoethyl}-3,3-diphenylpiperidin-2-one], the IC50 is reported as 760 nM. `O=C(CN1CCCC(c2ccccc2)(c2ccccc2)C1=O)N1C[C@@H]2CCCN(C(c3ccccc3)c3ccccc3)[C@@H]2C1` [Example 88, 1-{2-[(4aS,7aS)-1-benzhydryloctahydro-6H-pyrrolo[3,4-b]pyridin-6-yl]-2-oxoethyl}-3,3-diphenylpiperidin-2-one] showed an IC50 of 1640 nM. `CC1(NC(=O)CN2CCCC(c3ccccc3)(c3ccccc3)C2=O)CCN(Cc2ccccc2)C1` (centres unmarked) [Example 89, N-(1-benzyl-3-methylpyrrolidin-3-yl)-2-(2-oxo-3,3-diphenylpiperidin-1-yl)acetamide] showed an IC50 of 3000 nM. Molecule `O=C(CN1CCCC(c2ccc(F)cc2)(c2ccc(F)cc2)C1=O)N1CCN(C(c2ccccc2)c2ccccc2)CC1` [Example 90, 1-[2-(4-benzhydrylpiperazin-1-yl)-2-oxoethyl]-3,3-bis(4-fluorophenyl)piperidin-2-one] has an IC50 of 4610 nM. `O=C(CN1CCCC(c2ccccc2)C1=O)N1CCN(C(c2ccc(F)cc2)c2ccc(F)cc2)CC1` (centres unmarked) [Example 92, 1-(2-{4-[bis(4-fluorophenyl)methyl]piperazin-1-yl}-2-oxoethyl)-3-phenylpiperidin-2-one] showed an IC50 of 1010 nM. For `O=C(CN1CCCC(c2ccccc2)C1=O)N1CCN(Cc2cccc(C(F)(F)F)c2)CC1` (centres unmarked) [Example 93, 1-(2-oxo-2-{4-[3-(trifluoromethyl)benzyl]piperazin-1-yl}ethyl)-3-phenylpiperidin-2-one], the IC50 was 5900 nM.
